Experimental data published in publication PMC6272127, “Synthesis, Antiproliferative Activity and Molecular Properties Predictions of Galloyl Derivatives” (Molecules, 2015).
≈ marks a conversion by molar mass, not a printed value.

Columns and labels:
MCF-7 (breast) = assay: Anticancer assay in vitro (sulforhodamine B), MCF-7; assay type: cell-based
Method: (§1) The experiments were performed in triplicate.

HT-29 (colon) = assay: Anticancer assay in vitro (sulforhodamine B), HT-29; assay type: cell-based
Method: as §1

HaCaT (keratinocytes) = assay: Anticancer assay in vitro (sulforhodamine B), HaCaT; assay type: cell-based; details: 48 h
Method: as §1

[1] = as above; assay type: cell-based; details: human, HaCaT keratinocytes, killing 50% of cells, read-out: LC50
Method: as §1

786-0 (renal) = assay: cells; assay type: cell-based
Method: as §1

[2] = test system: NCI-H460 (lung, non-small cells); assay: cells; assay type: cell-based
Method: as §1

K-562 (leukemia) = assay: cells; assay type: cell-based; details: Homo sapiens, K562; K-562, 48 h, SRB
Method: as §1

[3] = test system: NCI-ADR/RES (breast expressing the multiple drug resistance phenotype); assay: cells; assay type: cell-based; details: NCI/ADR-RES, 48 h
Method: as §1

PC-3 (prostate) = assay: cells; assay type: cell-based
Method: as §1

U251 (glioma, CNS) = assay: cells
Method: The GI50 values (growth inhibitory activity) (Table 1) refer to the drug concentration that produces a 50% reduction of cellular growth compared with the untreated control cells. The TGI (cytostatic activity) and LC50 (cytotoxic activity) values (Table 2) refer to the drug concentration required for total growth inhibition and killing 50% of the cells, respectively.
The synthesized compounds were assessed in the following ten human tumor cell lines from various tissues kindly provide by the National Cancer Institute (Frederick, MD, USA): U251 (glioma, CNS), MCF-7 (breast), NCI-ADR/RES (breast expressing the multiple drug resistance phenotype), 786-0 (renal), NCI-H460 (lung, non-small cells), PC-3 (prostate), OVCAR-3 (ovarian), HT-29 (colon), K-562 (leukemia) and HaCaT (keratinocytes). Stock cultures were grown in media containing 5 mL of RPMI 1640 (Gibco BRL) supplemented with 5% fetal bovine serum. Gentamicin ([…]) was added to the experimental cultures. Cells in 96-well plates (100 µL cells/well) were exposed to sample concentrations in DMSO/RPMI (0.25, 2.5, 25, and 250 µg/mL) at 37 °C and 5% CO2 for 48 h. […] Next, cells were fixed with 50% trichloroacetic acid, and cell proliferation was determined by spectrophotometric quantification (540 nm) of cellular protein content employing the sulforhodamine B assay. Doxorubicin (0.025–25 µg/mL) was used as a positive control. Three measurements were obtained: first at time point zero (T0, at the beginning of incubation) and then 48 h post-incubation for both the compound-free (C) and tested (T) cells. Cell proliferation was determined using the equation 100 × [(T − T0)/C − T0]. A cytostatic effect was observed when T ≥ T0, while a cytocidal effect occurred when T < T0. The experiments were performed in triplicate.

OVCAR-3 (ovarian) = assay: Anticancer assay in vitro (sulforhodamine B), OVCAR-3; assay type: cell-based; details: for GI50: OVCAR-3, 48 h, SRB
Method: as §1

With `NNC(=O)c1cc(O)c(O)c(O)c1` [Compound 3, Galloyl hydrazide] as the compound, how does the GI50 (MCF-7 (breast); Homo sapiens, MCF7, MCF-7, 48 h, SRB) read?
Its GI50 is 850 nM.

What about the TGI (MCF-7 (breast); MCF-7, as printed in the text) of the same compound?
Its TGI is 2360 nM.

What about the TGI (MCF-7 (breast); MCF-7, total growth inhibition, 48 h) of the same compound?
The TGI was 2.36 µg/mL.

What about the TGI (HT-29 (colon); HT-29, total growth inhibition, 48 h) of the same compound?
Its TGI is 3.27 µg/mL (≈ 17.8 µM).

What about the GI50 (HT-29 (colon); Homo sapiens, HT-29, 48 h, SRB) of the same compound?
Its GI50 is 1210 nM.

What about the CC50 (HT-29 (colon); Homo sapiens, HT-29, killing 50% of cells, 48 h, read-out: LC50 (the source's name)) of the same compound?
The CC50 was 26.2 µg/mL (≈ 142 µM).

And the GI50 (HaCaT (keratinocytes); Homo sapiens, SRB)?
Its GI50 is 2500 nM.

What about the TGI (HaCaT (keratinocytes); total growth inhibition) of the same compound?
The TGI was 29.02 µg/mL (≈ 158 µM).

And the CC50 at 48 h [1]?
Its CC50 at 48 h is > 100 µg/mL.

What about the TGI (786-0 (renal); 786-0, total growth inhibition, 48 h) of the same compound?
The TGI was 17.98 µg/mL (≈ 97.6 µM).

What about the GI50 (786-0 (renal); Homo sapiens, 786-0, 48 h, SRB) of the same compound?
The GI50 was 1560 nM.

What about the GI50 ([2]; Homo sapiens, NCI-H460, 48 h, SRB) of the same compound?
Its GI50 is 5540 nM.

And the TGI ([2]; NCI-H460, total growth inhibition, 48 h)?
The TGI was 17.35 µg/mL (≈ 94.2 µM).

What about the GI50 (K-562 (leukemia)) of the same compound?
The GI50 was 1170 nM.

What about the GI50 ([3]; Homo sapiens, SRB) of the same compound?
The GI50 was 910 nM.

What about the TGI ([3]; total growth inhibition) of the same compound?
The TGI was 2.56 µg/mL (≈ 13.9 µM).

And the GI50 (PC-3 (prostate); Homo sapiens, PC-3, 48 h, SRB)?
The GI50 was 3530 nM.

And the TGI (PC-3 (prostate); PC-3, total growth inhibition, 48 h)?
Its TGI is 18.31 µg/mL (≈ 99.4 µM).

What about the GI50 (U251 (glioma, CNS); Homo sapiens, U-251, 48 h) of the same compound?
The GI50 was 1110 nM.

And the CC50 (U251 (glioma, CNS); Homo sapiens, U-251, 48 h, read-out: LC50)?
Its CC50 is 31.4 µg/mL (≈ 170 µM).

What about the TGI (U251 (glioma, CNS); U251, total growth inhibition, 48 h) of the same compound?
The TGI was 6.13 µg/mL (≈ 33.3 µM).

What about the GI50 (OVCAR-3 (ovarian); Homo sapiens) of the same compound?
The GI50 was ≤ 890 nM.

And the GI50 (OVCAR-3 (ovarian))?
The GI50 was 880 nM.

And the TGI (OVCAR-3 (ovarian); OVCAR-3, total growth inhibition, 48 h)?
The TGI was 9.77 µg/mL (≈ 53.1 µM).
